According to patent publication US20060173028A1, “Therapeutic and/or preventive agent for chronic skin disease” (Kyowa Hakko Kogyo Co., Ltd., priority 2003, published 2006):
Marks after values point to notes of the source that are not given here.

What was measured:
[1] = test system: oxazolone-induced ear swelling; assay: Inhibitory effects on oxazolone-induced ear swelling in mice; assay type: in vivo, BALB/c mice; conditions: dose 100 μg/site, epicutaneous
Procedure: Six-week-old BALB/c mice (male, Charles River Japan, Inc.) were used for the experiment. […] The mice were placed in plastic cages (6 mice per cage) in a breeding room which was kept at a room temperature (19 to 25° C.) and a humidity of 30 to 70% and was illuminated for 12 hours a day (from 7:00 a.m. to 7:00 p.m.). The mice were allowed to freely access commercially available pellets and water. As an antigen solution, Oxazolone (Sigma-Aldrich) was dissolved in acetone (Kanto Kagaku) to prepare 0.5 weight/volume % of oxazolone-acetone solution. Compound (I) was dissolved in the antigen solution at 5 weight/volume % to prepare a Compound (I)-dissolving antigen solution. BALB/c mice were each applied with 100 μL of the antigen solution to the shaved abdomen for sensitization. Mice were shaved on abdomen on the previous day of the sensitization. […] Ear thickness was measured with a dial thickness gauge (Ozaki Seisakusho) just before and 24 hours after the application for inducing .the reaction, and the difference in the thickness was used as an indication of ear swelling. The inhibition ratio (%) against ear swelling was calculated using the following: Inhibition ratio (%)=[{(value in solvent administration group)−(value in Compound (I) administration group)}/{(value in solvent administration group)−(value in non-administration group)}]×100

[2] = test system: dermatitis induced by repeated application of oxazolone; assay: Inhibitory effects on the increase of ear thickness in a mouse model of dermatitis induced by repeated application of oxazolone; assay type: in vivo, BALB/c mice; conditions: 28th day, dose 50 μg/site/time
Procedure: Six-week-old BALB/c mice (male, Charles River Japan, Inc.) were used for the experiment. […] The mice were placed in plastic cages (6 mice per cage) in a breeding room which was kept at a room temperature (19 to 25° C.) and a humidity of 30 to 70% and was illuminated for 12 hours a day (from 7:00 a.m. to 7:00 p.m.). The mice were allowed to freely access commercially available pellets and water.
The experiment was performed according to a method by Kitagaki et al. (J. Invest. Dermatol., […], 105: 749) with small modification.
As an antigen solution, Oxazolone (Sigma-Aldrich) was dissolved in acetone (Kanto Kagaku) to prepare 0.5 weight/volume % of oxazolone-acetone solution. Compound (I) was dissolved in the antigen solution at 5 weight/volume % to prepare a Compound (I)-dissolving antigen solution. BALB/c mice were each applied with 10 μL of the antigen solution to the ear for sensitization. […] On the 28th day when chronic dermatitis symptoms were observed, ear thickness was measured with a dial thickness gauge (Ozaki Seisakusho). The inhibition ratio (%) against the increase of ear thickness was calculated using the following: Inhibition ratio (%)=[{(value in solvent administration group)−(value in Compound (I) administration group)}/{(value in solvent administration group)−(value in non-administration group)}]×100

[3] = test system: delayed-type allergic reaction in the skin; conditions: animal model; Eur. J. Pharmacol., 2002, 446: 195; cited from earlier work
[4] = test system: chronic dermatitis models; conditions: J. Pharmacol. Exp. Ther., 1998, 287, p. 705; cited from earlier work

| Structure (SMILES) | Auricular Edema ([1]; difference in ear thickness just before and 24 hours after induction, male BALB/c mice) | Inhibition Ratio against ear swelling ([1]; 24 hours after induction, relative to solvent and non-administration groups) [%] | Auricle thickness ([2]; repeated application to the ear day 7 to 28, male BALB/c mice) | Inhibition Ratio against the increase of ear thickness ([2]; repeated application, relative to solvent and non-administration groups) [%] | Effect on delayed-type allergic reaction in the skin [3] | Therapeutic effects on chronic dermatitis models [4] |
| --- | --- | --- | --- | --- | --- | --- |
| COc1ccc(C(=O)Cc2c(Cl)cncc2Cl)c2c1OC1(CCCC1)O2 [Compound (I), 7-[2-(3,5-dichloro-4-pyridyl)-1-oxoethyl]-4-methoxy-spiro[1,3-benzodioxol-2,1′-cyclopentane]] | 16** ×0.01 mm | 64 | 67** ×0.01 mm | 41 | – | – |
| COc1ccc([C@]2(C#N)CC[C@@H](C(=O)O)CC2)cc1OC1CCCC1 [SB207499] | – | – | – | – | inhibit a delayed-type allergic reaction in the skin | exhibit therapeutic effects on chronic dermatitis models |
